Where two headings read alike, the source gives them in different places.

Series [1] has as its system osteoblasts. Briefly: Assay of influences on osteoblasts: alkaline phosphatase (ALP) activity in cultured goldfish scales. The note with it: for ALP activity, amount of paranitrophenol produced: scales cultured at 15° C. for 6 hours, control 6.00-6.17 (per table). The class given is cell-based. An excerpt: In accordance with the method described in N. Suzuki and A. Hattori, J. Pineal Res., 33, 253-258, 2002, influences of an indole derivative on bone cells were inspected. A female goldfish (body weight: about 30 g) was put under anesthesia with MS222 (ethyl 3-aminobenzoate, methane sulfonic acid salt) (Aldrich), and a desired number of scales were peeled off. The scales were washed twice in Eagle's minimum essential medium (ICN Biomedicals Inc.) comprising 1% antibiotics (a mixture of penicillin and streptomycin). Medium of the same type was introduced into each well of a 24-well plate in amounts of 1 ml, several scales were introduced to each well (8 scales in general), and 10^−4, 10^−6, and 10^−8 M indole derivatives were applied to separate wells. Subsequently, the scales were cultured at 15° C. for 6 hours. Also, a group to which no indole derivative had been added was prepared (a control group), and influences thereof on osteoclasts and osteoblasts were compared. Two control groups, i.e., a group for inspecting osteoclasts and a group for inspecting osteoblasts, were provided. Specifically, a total of 8 wells were provided for the control and 10^−4, 10^−6, and 10^−8 M indole derivatives (2 wells for each thereof). Accordingly, 3 types of indole derivatives can be inspected with the use of a 24-well plate. After the culture, medium was removed, 0.05 M cacodylate buffer (pH 7.4) containing 10% formalin was added, and the scales were immobilized. The scales were stored in 0.05 M cacodylate buffer at 4° C. until the measurement of enzyme activity was initiated. • (2) Assay of Influences Imposed on Osteoblasts, i.e., Assay of Alkaline Phosphatase (ALP) Activity The immobilized scales were removed from the plate, and the weights thereof were measured. Thereafter, the scales were introduced into a 96-well microplate, 200 μl of 100 mM tris-HCl buffer (pH 9.5) comprising 10 mM paranitrophenol phosphate (substrate), 1 mM magnesium chloride, and 0.1 mM zinc chloride was introduced into each well, the reaction was allowed to proceed at 25° C. for 1 hour, and an aqueous solution of 2N sodium hydroxide (50 μl) was added thereto in order to terminate the reaction. Thereafter, 150 μl of the solution after the reaction was transferred to the other microplate, and the amount of pNP generated by ALP was measured using a spectrophotometer (405 nm) to determine the activity.

In series [2] the test system is osteoclasts. The experiment in a line: Assay of influences on osteoclasts: tartaric acid-resistant acid phosphatase (TRAP) activity in cultured goldfish scales. The class given is cell-based. The note with it: for TRAP activity, amount of paranitrophenol produced: scales cultured at 15° C. for 6 hours, control 3.43 ± 0.04. An excerpt:
In accordance with the method described in N. Suzuki and A. Hattori, J. Pineal Res., 33, 253-258, 2002, influences of an indole derivative on bone cells were inspected.
A female goldfish (body weight: about 30 g) was put under anesthesia with MS222 (ethyl 3-aminobenzoate, methane sulfonic acid salt) (Aldrich), and a desired number of scales were peeled off. The scales were washed twice in Eagle's minimum essential medium (ICN Biomedicals Inc.) comprising 1% antibiotics (a mixture of penicillin and streptomycin). Medium of the same type was introduced into each well of a 24-well plate in amounts of 1 ml, several scales were introduced to each well (8 scales in general), and 10^−4, 10^−6, and 10^−8 M indole derivatives were applied to separate wells. Subsequently, the scales were cultured at 15° C. for 6 hours. Also, a group to which no indole derivative had been added was prepared (a control group), and influences thereof on osteoclasts and osteoblasts were compared. Two control groups, i.e., a group for inspecting osteoclasts and a group for inspecting osteoblasts, were provided. Specifically, a total of 8 wells were provided for the control and 10^−4, 10^−6, and 10^−8 M indole derivatives (2 wells for each thereof). Accordingly, 3 types of indole derivatives can be inspected with the use of a 24-well plate.
After the culture, medium was removed, 0.05 M cacodylate buffer (pH 7.4) containing 10% formalin was added, and the scales were immobilized. The scales were stored in 0.05 M cacodylate buffer at 4° C. until the measurement of enzyme activity was initiated.
2-Bromomelatonin (a compound represented by formula (I) wherein X represents a bromine atom; R^1 represents a hydrogen atom; R^2 represents methyl; R^3, R^5 and R^6 each represent a hydrogen atom; and R^4 represents methyl), which was subjected to the test, was a known compound, and it was synthesized by the method described in M. Somei, Y. Fukui, M. Hasegawa, N. Oshikiri, and T. Hayashi, Heterocycles, 53, 1725-1736, 2000. • (1) Assay of Influences Imposed on Osteoclasts, i.e., Assay of Tartaric Acid-Resistant Acid Phosphatase (TRAP) Activity
The immobilized scales were removed from the plate, and the weights thereof were measured. Thereafter, the scales were introduced into a 96-well microplate, 200 μl of 100 mM acetate buffer containing 20 mM tartaric acid and 10 mM paranitrophenol phosphate (substrate) was introduced to each well, reaction was allowed to proceed at 25° C. for 1 hour, and an aqueous solution of 2N sodium hydroxide (50 μl) was then added in order to terminate the reaction. The solution after the reaction (150 μl) was transferred to the other microplate, and the amount of paranitrophenol (pNP) generated by TRAP was measured using a spectrophotometer (405 nm). The osteoclast activity was indicated in terms of the amount of paranitrophenol phosphate decomposed and that of pNP produced within 1 hour per mg of the scales.

Series [3] deals with osteoblasts. The note with it: reported in N. Suzuki and A. Hattori, J. Pineal Res., 33, 253-258, 2002; cited from earlier work.
Series [4] concerns osteoclasts. Conditions: reported in N. Suzuki and A. Hattori, J. Pineal Res., 33, 253-258, 2002; cited from earlier work.

Regarding `COc1c(Br)cc2c(c1Br)c(CCNC(C)=O)c(Br)n2Cc1ccccc1` [1-Benzyl-2,4,6-tribromomelatonin, N-acetyl-1-benzyl-2,4,6-tribromo-5-methoxyindole-3-ethanamine], the melting point lay within 218 to 219 °C. Moreover, in series [1] (indole derivative 10^−4 M), the “ALP activity, amount of paranitrophenol produced” value (from here on “ALP activity, amount”) was 7.77 ± 0.37 nmol/mg of scales/hr. For the same molecule, the “ALP activity, amount” value in series [1] (indole derivative 10^−6 M) is given as 7.92 ± 0.55 nmol/mg of scales/hr. Moreover, the “ALP activity, amount” value in series [1] (indole derivative 10^−8 M) was 8.44 ± 1.00 nmol/mg of scales/hr. In series [2] (indole derivative 10^−4 M), the “TRAP activity, amount of paranitrophenol produced” value (“TRAP activity, amount” for short) was 2.59 ± 0.24 nmol/mg of scales/hr. In addition, the “TRAP activity, amount” value in series [2] (indole derivative 10^−6 M) is listed as 2.83 ± 0.20 nmol/mg of scales/hr. Besides, the “TRAP activity, amount” value in series [2] (indole derivative 10^−8 M) is on record as 2.85 ± 0.20 nmol/mg of scales/hr.
Regarding `C=CCn1c(Br)c(CCNC(C)=O)c2c(Br)c(OC)c(Br)cc21` [1-Allyl-2,4,6-tribromomelatonin, N-acetyl-1-allyl-2,4,6-tribromo-5-methoxyindole-3-ethanamine], the melting point fell in the range of 142 to 143 °C. In addition, in series [1] (indole derivative 10^−4 M), the “ALP activity, amount” value is 6.44 ± 0.44 nmol/mg of scales/hr. The “ALP activity, amount” value in series [1] (indole derivative 10^−6 M) is reported as 6.79 ± 0.63 nmol/mg of scales/hr. For the same molecule, the “ALP activity, amount” value in series [1] (indole derivative 10^−8 M) is reported as 8.30 ± 0.68 nmol/mg of scales/hr. For the same molecule, the “TRAP activity, amount” value in series [2] (indole derivative 10^−4 M) is 2.87 ± 0.10 nmol/mg of scales/hr. For the same molecule, the “TRAP activity, amount” value in series [2] (indole derivative 10^−6 M) was 2.89 ± 0.12 nmol/mg of scales/hr. Moreover, the “TRAP activity, amount” value in series [2] (indole derivative 10^−8 M) was 2.99 ± 0.13 nmol/mg of scales/hr.
On to `COc1c(Br)c(Br)c2[nH]c(Br)c(CCNC(C)=O)c2c1Br` [2,4,6,7-Tetrabromomelatonin, 2,4,6,7-tetrabromomelatonin], for which the “ALP activity, amount” value in series [1] (indole derivative 10^−4 M) is 6.12 ± 0.41 nmol/mg of scales/hr; in series [1] (indole derivative 10^−6 M), 6.12 ± 0.50 nmol/mg of scales/hr; in series [1] (indole derivative 10^−8 M) it was 7.90 ± 0.73 nmol/mg of scales/hr. Also, the “TRAP activity, amount” value in series [2] (indole derivative 10^−4 M) was 2.71 ± 0.17 nmol/mg of scales/hr; in series [2] (indole derivative 10^−6 M), 2.83 ± 0.16 nmol/mg of scales/hr; in series [2] (indole derivative 10^−8 M), 3.19 ± 0.14 nmol/mg of scales/hr.
Regarding `C#CCn1c(Br)c(CCNC(C)=O)c2c(Br)c(OC)c(Br)cc21` [2,4,6-Tribromo-1-propargylmelatonin, N-acetyl-2,4,6-tribromo-5-methoxy-1-propargylindole-3-ethanamine], the “ALP activity, amount” value in series [1] (indole derivative 10^−4 M) was 7.55 ± 0.76 nmol/mg of scales/hr; in series [1] (indole derivative 10^−6 M), 8.66 ± 0.47 nmol/mg of scales/hr; in series [1] (indole derivative 10^−8 M) it was 7.07 ± 0.75 nmol/mg of scales/hr. The “TRAP activity, amount” value is 2.78 ± 0.13 nmol/mg of scales/hr in series [2] (indole derivative 10^−4 M), 2.82 ± 0.15 nmol/mg of scales/hr in series [2] (indole derivative 10^−6 M) and 2.78 ± 0.15 nmol/mg of scales/hr in series [2] (indole derivative 10^−8 M).
With `COc1ccc2[nH]c(Br)c(CCNC(C)=O)c2c1` [2-Bromomelatonin], the “ALP activity, amount” value in series [1] (indole derivative 10^−4 M) is reported as 5.72 ± 0.47 nmol/mg of scales/hr; in series [1] (indole derivative 10^−6 M) it was 6.03 ± 0.66 nmol/mg of scales/hr; in series [1] (indole derivative 10^−8 M), 7.41 ± 0.35 nmol/mg of scales/hr. Also, the “TRAP activity, amount” value in series [2] (indole derivative 10^−4 M) is 2.83 ± 0.23 nmol/mg of scales/hr; in series [2] (indole derivative 10^−6 M), 2.62 ± 0.17 nmol/mg of scales/hr; in series [2] (indole derivative 10^−8 M) it was 3.02 ± 0.23 nmol/mg of scales/hr.
`COc1c(Br)cc2c(c1Br)c(CCNC(C)=O)c(Br)n2S(=O)(=O)c1ccc(C)cc1` [2,4,6-tribromo-1-tosyl-melatonin, N-acetyl-2,4,6-tribromo-5-methoxy 1-tosylindole-3-ethanamine] gave a melting point of 215 to 216 °C.
Turning to `COc1ccc2[nH]cc(CCNC(C)=O)c2c1` [Melatonin, N-acetyl-5-methoxytryptamine, reference compound], the “ALP activity, amount” value in series [1] (indole derivative 10^−4 M) is given as 5.19 ± 0.36 nmol/mg of scales/hr; in series [1] (indole derivative 10^−6 M), 5.42 ± 0.25 nmol/mg of scales/hr; in series [1] (indole derivative 10^−8 M), 5.45 ± 0.27 nmol/mg of scales/hr. Also, the “Influence on osteoblasts (in words)” value in series [1] (summary of FIG. 2A, 2B, Tables 2A to 2G) is recorded as “suppressively acts”; in series [3] it was “act suppressively”. Further, the entries for the “TRAP activity, amount” value in series [2] (indole derivative 10^−4 M), in series [2] (indole derivative 10^−6 M) and in series [2] (indole derivative 10^−8 M) were 2.67 ± 0.11 nmol/mg of scales/hr, 2.69 ± 0.15 nmol/mg of scales/hr and 2.91 ± 0.13 nmol/mg of scales/hr, respectively. In addition, the “Influence on osteoclasts (in words)” value is on record as “suppressively acts” in series [2] (summary of FIG. 1A, 1B, Table 1) and “act suppressively” in series [4].
Turning to `COc1c(Br)cc2[nH]c(Br)c(CCNC(C)=O)c2c1Br` [2,4,6-Tribromomelatonin, N-acetyl-2,4,6-tribromo-5-methoxyindole-3-ethanamine], the “ALP activity, amount” value is recorded as 6.00 ± 0.38 nmol/mg of scales/hr in series [1] (indole derivative 10^−4 M), 6.61 ± 0.38 nmol/mg of scales/hr in series [1] (indole derivative 10^−6 M) and 7.58 ± 0.70 nmol/mg of scales/hr in series [1] (indole derivative 10^−8 M). Further, the “TRAP activity, amount” value in series [2] (indole derivative 10^−4 M) is listed as 2.93 ± 0.18 nmol/mg of scales/hr; in series [2] (indole derivative 10^−6 M) it was 2.87 ± 0.13 nmol/mg of scales/hr; in series [2] (indole derivative 10^−8 M), 2.88 ± 0.08 nmol/mg of scales/hr.

One may read the melting point as the temperature, or range, at which the solid turns liquid.

(Values after US20070197629A1, “Indole derivative and application thereof” (priority 2004, published 2007).)
